Measurements published in patent publication US20070105788A1, “Azithromycin for treatment of granulomatous rosacea” (priority 2005, published 2007).

Test system: granulomatous rosacea
Experiment: Case reports: treatment of patients with granulomatous rosacea
Format: in vivo, human
Details: for clinical response of granulomatous rosacea at follow-up: two months later
Experimental: A patient presented with severe inflammatory diffuse facial granulomatous rosacea. The condition had been present for 6 years.
They were started on oral azithromycin 500 mg daily dose together with an estrogenic hormone, norgestimate/ethinyl estradiol (ORTHO TRI-CYCLEN®, Ortho-McNeil Pharmaceutical, Raritan, N.J.). […] Treatment was continued with a follow-up examination expected in another 6 to 8 weeks.
A patient presented with complaints of a “facial rash”. […] They were started on oral cephalexin. […] Treatment with dicloxicillin was initiated.
Oral azithromycin at a dosage of 500 mg daily was started, together with daily topical application of a sodium sulfacetamide 10% with sulfur 5% cream and a metronidazole cream.
A person presented with a facial rash.
Treatment was initiated with a variety of topical medications, including metronidazole gel, Elidel® (pimecrolimus, Novartis Pharmaceuticals Corp., New York, N.Y.), 2.4% hydrocortisone, and desonide cream.
The next therapy tried was oral doxycycline 100 mg twice daily. […] The patient was then started on Accutane® (Hoffman-LaRoche Inc., Nutley, N.J.) at an initial dosage of 20 mg per day, which was subsequently raised to 40 mg per day and then to 60 mg per day.
Treatment was subsequently initiated with azithromycin as the sole therapy, administered orally at a dosage of 250 mg daily for three weeks.

CC[C@H]1OC(=O)[C@H](C)[C@@H](O[C@H]2C[C@@](C)(OC)[C@@H](O)[C@H](C)O2)[C@H](C)[C@@H](O[C@@H]2O[C@H](C)C[C@H](N(C)C)[C@H]2O)[C@](C)(O)C[C@@H](C)CN(C)[C@H](C)[C@@H](O)[C@]1(C)O [azithromycin]
clinical response of granulomatous rosacea at follow-up (Example 1, azithromycin reduced to 500 mg every other day plus daily topical azaleic acid): remained clear | clinical response of granulomatous rosacea (Example 1, oral azithromycin 500 mg daily together with norgestimate/ethinyl estradiol, 9 weeks after initiation): greatly improved with only minimal residual facial erythema and no residual inflammatory lesions | clinical response of granulomatous rosacea at follow-up (Example 2, azithromycin decreased to 500 mg every other day, topicals continued): no evidence of residual rosacea | clinical response of granulomatous rosacea (Example 2, oral azithromycin 500 mg daily with topical sodium sulfacetamide 10%/sulfur 5% cream and metronidazole cream, six weeks after initiation): minimally perceptible residual erythema and papulation | clinical response of granulomatous rosacea (Example 3, azithromycin as sole therapy, orally 250 mg daily for three weeks): remarkable improvement | recurrence of granulomatous rosacea (Example 3, following cessation of azithromycin therapy (250 mg daily for three weeks)): has not had a recurrence | efficacy on signs and symptoms of granulomatous rosacea (general statement) (administered systemically for a period of several weeks or more): effective

CC1=C(C(=O)O)N2C(=O)[C@@H](NC(=O)[C@H](N)c3ccccc3)[C@H]2SC1 [cephalexin]
clinical response of facial rash (later diagnosed granulomatous rosacea) (Example 2, patient, oral cephalexin, one month later): worsening pustules and tender nodules

Cc1onc(-c2c(Cl)cccc2Cl)c1C(=O)N[C@@H]1C(=O)N2[C@@H]1SC(C)(C)[C@@H]2C(=O)O [dicloxicillin]
clinical response of facial rash (later diagnosed granulomatous rosacea) (Example 2, dicloxicillin, six weeks later): persistent severe to worsening involvement
